Laboratory results from PubChem BioAssay AID248 (DTP/NCI, 2004).
Several values for one entry are separate records, joined by “and”; a condition that tells them apart may be missing. Equal entries are not always repeated. Inconclusive results and toxic doses are left out.

System: L1210 leukemia ip in BDF1 mice, survival T/C
Assay: NCI In Vivo Anticancer Drug Screen. Data for tumor model L1210 Leukemia (intraperitoneal) in B6D2F1 (BDF1) mice
Details: endpoint: mean survival time, higher = longer survival
Summary of the method: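 Antitumor effect is assessed in tumor-bearing animals. Survival in the compound arm is compared with a vehicle-dosed control arm and expressed as their quotient.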

[1] = dose: 100.0 mg/kg/injection, schedule: Q01DX009 (ip), vehicle: Klucel (hydroxypropylcellulose) (HPC)
[2] = dose: 200.0 mg/kg/injection, schedule: Q01DX009 (ip), vehicle: Klucel (hydroxypropylcellulose) (HPC)
[3] = dose: 400.0 mg/kg/injection, schedule: Q01DX009 (ip), vehicle: Klucel (hydroxypropylcellulose) (HPC)
[4] = dose: 100.0 mg/kg/injection, schedule: Q01DX009 (ip), vehicle: saline with Tween-80
[5] = dose: 100.0 mg/kg/injection, schedule: Q04DX003 (ip), vehicle: saline with Tween-80
[6] = dose: 200.0 mg/kg/injection, schedule: Q04DX003 (ip), vehicle: saline with Tween-80
[7] = dose: 400.0 mg/kg/injection, schedule: Q04DX003 (ip), vehicle: saline with Tween-80
[8] = dose: 300.0 mg/kg/injection, schedule: Q01DX001 (ip), vehicle: saline
[9] = dose: 100.0 mg/kg/injection, schedule: Q01DX001 (ip), vehicle: carboxymethylcellulose (CMC)
[10] = dose: 200.0 mg/kg/injection, schedule: Q01DX001 (ip), vehicle: carboxymethylcellulose (CMC)
[11] = dose: 400.0 mg/kg/injection, schedule: Q01DX001 (ip), vehicle: carboxymethylcellulose (CMC)
[12] = dose: 100.0 mg/kg/injection, schedule: Q04DX003 (ip), vehicle: Klucel (hydroxypropylcellulose) (HPC)
[13] = dose: 200.0 mg/kg/injection, schedule: Q04DX003 (ip), vehicle: Klucel (hydroxypropylcellulose) (HPC)
[14] = dose: 400.0 mg/kg/injection, schedule: Q04DX003 (ip), vehicle: Klucel (hydroxypropylcellulose) (HPC)
[15] = dose: 100.0 mg/kg/injection, schedule: Q04DX003 (ip), vehicle: saline
[16] = dose: 200.0 mg/kg/injection, schedule: Q04DX003 (ip), vehicle: saline
[17] = dose: 100.0 mg/kg/injection, schedule: Q01DX001 (ip), vehicle: Klucel (hydroxypropylcellulose) (HPC)
[18] = dose: 200.0 mg/kg/injection, schedule: Q01DX001 (ip), vehicle: Klucel (hydroxypropylcellulose) (HPC)

With `O=C(Nc1ccc(Br)cc1)Oc1ccc(-c2ccccc2)cc1` the T/C (dose: 50.0 mg/kg/injection, schedule: Q01DX009 (ip), vehicle: Klucel (hydroxypropylcellulose) (HPC)) was 95 % of control, the T/C [1] was 95 % of control and 91 % of control and the T/C [2] was 90 % of control. For the same molecule, the T/C [3] was 86 % of control and 87 % of control.

In the case of `CCOC(=O)c1ccc(NC(=O)Nc2ccccc2Cl)cc1`, the T/C [4] is reported as 93 % of control, the T/C [5] is reported as 91 % of control and the T/C (dose: 200.0 mg/kg/injection, schedule: Q01DX009 (ip), vehicle: saline with Tween-80) is reported as 87 % of control. For the same molecule, the T/C [6] was 93 % of control, the T/C (dose: 400.0 mg/kg/injection, schedule: Q01DX009 (ip), vehicle: saline with Tween-80) was 92 % of control and the T/C [7] was 94 % of control.

`CC(C)=NNC(=O)c1ccccc1` was tested, and the T/C (dose: 12.5 mg/kg/injection, schedule: Q04DX003 (ip), vehicle: saline with Tween-80) was 94 % of control, the T/C (dose: 50.0 mg/kg/injection, schedule: Q01DX009 (ip), vehicle: saline with Tween-80) was 110 % of control and the T/C (dose: 50.0 mg/kg/injection, schedule: Q04DX003 (ip), vehicle: saline with Tween-80) was 96 % of control. The T/C [4] was 113 % of control, the T/C [5] was 108 % of control and 110 % of control and the T/C [6] was 124 % of control. The T/C [7] was 96 % of control.

`CCOCCOCCOCCCNCCCN1CC1` was tested, and the T/C (dose: 88.0 mg/kg/injection, schedule: Q01DX009 (ip), vehicle: saline) was 117 % of control, the T/C (dose: 200.0 mg/kg/injection, schedule: Q01DX009 (ip), vehicle: saline) was 96 % of control and the T/C [8] was 116 % of control.

`COc1ccc2c(c1)C13CCCC(C)(C(=O)NC1)C3CC2` (centres undefined) was tested, and the T/C [9] was 93 % of control, the T/C [10] was 95 % of control and the T/C [11] was 101 % of control.

For `OCCCCc1ccccc1`, the T/C (dose: 100.0 mg/kg/injection, schedule: Q01DX001 (ip), vehicle: saline sonified) was 95 % of control, the T/C (dose: 100.0 mg/kg/injection, schedule: Q01DX009 (ip), vehicle: saline sonified) was 104 % of control and the T/C (dose: 200.0 mg/kg/injection, schedule: Q01DX001 (ip), vehicle: saline sonified) was 101 % of control. The T/C (dose: 200.0 mg/kg/injection, schedule: Q01DX009 (ip), vehicle: saline sonified) was 97 % of control and the T/C (dose: 400.0 mg/kg/injection, schedule: Q01DX001 (ip), vehicle: saline sonified) was 111 % of control.

With `CCOc1cccc(Cc2cn(CCC#N)c(=O)[nH]c2=O)c1` the T/C [12] was 108 % of control, the T/C [13] was 89 % of control and the T/C [14] was 89 % of control.

For `C[CH2][Pb]([CH2]C)([CH2]C)[O]C(C)=O`, the T/C (dose: 0.62 mg/kg/injection, schedule: Q01DX009 (ip), vehicle: Klucel (hydroxypropylcellulose) (HPC)) was 96 % of control, the T/C (dose: 1.25 mg/kg/injection, schedule: Q01DX009 (ip), vehicle: Klucel (hydroxypropylcellulose) (HPC)) was 102 % of control and the T/C (dose: 2.5 mg/kg/injection, schedule: Q01DX009 (ip), vehicle: Klucel (hydroxypropylcellulose) (HPC)) was 93 % of control and 94 % of control. The T/C (dose: 5.0 mg/kg/injection, schedule: Q01DX001 (ip), vehicle: carboxymethylcellulose (CMC)) was 100 % of control, the T/C (dose: 5.0 mg/kg/injection, schedule: Q04DX003 (ip), vehicle: Klucel (hydroxypropylcellulose) (HPC)) was 90 % of control and the T/C (dose: 10.0 mg/kg/injection, schedule: Q01DX001 (ip), vehicle: carboxymethylcellulose (CMC)) was 103 % of control. The T/C (dose: 10.0 mg/kg/injection, schedule: Q04DX003 (ip), vehicle: Klucel (hydroxypropylcellulose) (HPC)) was 95 % of control.

`CCOC(=O)N(C)c1ccccc1` was tested, and the T/C [1] was 101 % of control, the T/C [12] was 97 % of control and the T/C [2] was 105 % of control. For the same molecule, the T/C [13] was 97 % of control, the T/C [3] was 101 % of control and the T/C [14] was 97 % of control.

In the case of `Cc1ccc(CSCc2ccc(C)cc2)cc1`, the T/C [1] is reported as 100 % of control, the T/C [2] is reported as 96 % of control and the T/C [3] is reported as 92 % of control.

For `Nc1nc(-c2ccccc2N=NN2CCN(N=Nc3ccccc3-c3nc(N)c4ccccc4n3)CC2)nc2ccccc12`, the T/C [12] was 101 % of control and the T/C [13] was 96 % of control.

For `CCOC(=O)NCc1cnccn1`, the T/C [15] was 100 % of control and 102 % of control, the T/C [16] was 95 % of control and 100 % of control and the T/C (dose: 400.0 mg/kg/injection, schedule: Q04DX003 (ip), vehicle: saline) was 104 % of control.

`O=c1[nH]c2nc3ccccc3nc2c(=O)n1O` was tested, and the T/C [1] was 100 % of control and the T/C [2] was 105 % of control.

`O=C(OC1COC(n2c(=O)oc3ccc(F)cc32)C(OC(=O)c2ccccc2)C1OC(=O)c1ccccc1)c1ccccc1` (centres undefined) was tested, and the T/C [9] was 91 % of control, the T/C [1] was 94 % of control and the T/C [10] was 89 % of control. The T/C [2] was 89 % of control, the T/C [11] was 89 % of control and the T/C [3] was 87 % of control.

`CC(=O)OC1C2OC3C=C(C)CCC3(CO)C(C)(C1O)C21CO1` (centres undefined) was tested, and the T/C (dose: 0.8 mg/kg/injection, schedule: Q01DX009 (ip), vehicle: other) was 101 % of control, the T/C (dose: 1.6 mg/kg/injection, schedule: Q01DX009 (ip), vehicle: other) was 104 % of control and the T/C (dose: 3.2 mg/kg/injection, schedule: Q01DX009 (ip), vehicle: other) was 101 % of control. The T/C (dose: 6.4 mg/kg/injection, schedule: Q01DX009 (ip), vehicle: other) was 114 % of control, the T/C (dose: 12.8 mg/kg/injection, schedule: Q01DX009 (ip), vehicle: other) was 122 % of control and the T/C (dose: 25.6 mg/kg/injection, schedule: Q01DX009 (ip), vehicle: other) was 122 % of control.

In the case of `ClCC[N-]CC[N-]CCCl.[Cl][Pt+2][Cl]`, the T/C [17] is reported as 113 % of control, the T/C [18] is reported as 107 % of control and the T/C [13] is reported as 104 % of control. For the same molecule, the T/C [14] was 88 % of control.

With `CCCCCCCCP(C)(=O)CCCCCCCC` the T/C (dose: 100.0 mg/kg/injection, schedule: Q04DX002 (ip), vehicle: Klucel (hydroxypropylcellulose) (HPC)) was 105 % of control and the T/C (dose: 200.0 mg/kg/injection, schedule: Q04DX002 (ip), vehicle: Klucel (hydroxypropylcellulose) (HPC)) was 102 % of control.

For `CCCCC1C(=O)N2c3ccccc3-c3ccccc3N2C1=O`, the T/C (dose: 75.0 mg/kg/injection, schedule: Q01DX001 (ip), vehicle: saline) was 99 % of control, the T/C (dose: 150.0 mg/kg/injection, schedule: Q01DX001 (ip), vehicle: saline) was 96 % of control and the T/C [8] was 101 % of control.

`Nc1nc(SCc2ccccc2)nc2nc[nH]c12` was tested, and the T/C (dose: 50.0 mg/kg/injection, schedule: Q01DX001 (ip), vehicle: Klucel (hydroxypropylcellulose) (HPC)) was 91 % of control, the T/C [17] was 95 % of control and the T/C [18] was 93 % of control.

`CC(=O)Oc1cc2c3c(c1)-c1c(ccc(OC(C)=O)c1OC(C)=O)CC3NCC2` (centres undefined) was tested, and the T/C (dose: 3.13 mg/kg/injection, schedule: Q04DX003 (ip), vehicle: DMSO) was 93 % of control, the T/C (dose: 6.25 mg/kg/injection, schedule: Q04DX003 (ip), vehicle: DMSO) was 93 % of control and the T/C (dose: 12.5 mg/kg/injection, schedule: Q04DX003 (ip), vehicle: DMSO) was 93 % of control. For the same molecule, the T/C (dose: 25.0 mg/kg/injection, schedule: Q04DX003 (ip), vehicle: DMSO) was 98 % of control and the T/C (dose: 50.0 mg/kg/injection, schedule: Q04DX003 (ip), vehicle: DMSO) was 87 % of control.

In the case of `CN(C)CCC(C)(N)c1cccc2ccccc12` (centres undefined), the T/C [15] is reported as 113 % of control and the T/C [16] is reported as 107 % of control.

In the case of `Nc1nc(SCc2ccccc2)c2ncn(C3OC(CO)CC3O)c2n1` (centres undefined), the T/C (dose: 25.0 mg/kg/injection, schedule: Q01DX009 (ip), vehicle: other) is reported as 113 % of control, the T/C (dose: 50.0 mg/kg/injection, schedule: Q01DX001 (ip), vehicle: carboxymethylcellulose (CMC)) is reported as 110 % of control and the T/C (dose: 50.0 mg/kg/injection, schedule: Q01DX009 (ip), vehicle: other) is reported as 158 % of control. For the same molecule, the T/C [9] was 116 % of control, the T/C (dose: 100.0 mg/kg/injection, schedule: Q01DX009 (ip), vehicle: other) was 158 % of control and the T/C [11] was 150 % of control. The T/C (dose: 400.0 mg/kg/injection, schedule: Q01DX009 (ip), vehicle: other) was 95 % of control and the T/C (dose: 600.0 mg/kg/injection, schedule: Q01DX001 (ip), vehicle: carboxymethylcellulose (CMC)) was 155 % of control.

With `COc1cc(Oc2c(OC)cc(C(C)=O)cc2OC)cc(OC)c1OC` the T/C [5] was 101 % of control, the T/C [6] was 97 % of control and the T/C [7] was 97 % of control.

With `c1coc(C2SCSCS2)c1` the T/C [12] was 105 % of control, the T/C [13] was 101 % of control and the T/C [14] was 95 % of control.
